Reference: patent US9409866B2, “Pyridine-2-amides useful as CB2 agonists” (Hoffmann-La Roche Inc., priority 2012, dated 2016)
Like-named read-outs stand apart in the source and are kept apart here.

What was measured:
human CB1 receptors = human CB1 receptors (Homo sapiens (Human), UniProt P21554); assay: functional cAMP assay, CHO cells expressing human CB1; assay type: cell-based; settings: functional cAMP assay, CHO cells expressing human CB1
Method in brief: (§1)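 CHO cells expressing human CB1 or CB2 were preincubated 30 min at 30 °C in Krebs Ringer bicarbonate with 1 mM IBMX, then exposed to compound 30 min at 30 °C. cAMP quantified by TR-FRET competition (Alexa700 antibody/ruthenium-cAMP) against a 10 μM–0.13 nM standard curve; EC50 derived.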

human CB2 receptors = human CB2 receptors (Homo sapiens (Human), UniProt P34972); assay: functional cAMP assay, CHO cells expressing human CB2; assay type: cell-based
Method in brief: as §1

human CB1 receptors, sequence (P21554 whole entry): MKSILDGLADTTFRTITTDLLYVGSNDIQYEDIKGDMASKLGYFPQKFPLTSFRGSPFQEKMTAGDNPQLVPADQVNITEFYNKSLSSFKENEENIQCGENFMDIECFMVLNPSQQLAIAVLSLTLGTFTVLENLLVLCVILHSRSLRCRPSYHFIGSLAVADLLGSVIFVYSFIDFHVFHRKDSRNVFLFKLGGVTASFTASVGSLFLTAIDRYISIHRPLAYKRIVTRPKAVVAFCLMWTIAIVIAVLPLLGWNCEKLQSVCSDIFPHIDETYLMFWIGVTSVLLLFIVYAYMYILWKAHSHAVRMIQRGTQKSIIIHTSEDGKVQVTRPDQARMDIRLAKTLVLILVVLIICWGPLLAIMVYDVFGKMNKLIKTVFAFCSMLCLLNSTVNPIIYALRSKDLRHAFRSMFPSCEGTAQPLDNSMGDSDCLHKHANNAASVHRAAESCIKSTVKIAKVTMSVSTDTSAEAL
human CB2 receptors, sequence (P34972 whole entry): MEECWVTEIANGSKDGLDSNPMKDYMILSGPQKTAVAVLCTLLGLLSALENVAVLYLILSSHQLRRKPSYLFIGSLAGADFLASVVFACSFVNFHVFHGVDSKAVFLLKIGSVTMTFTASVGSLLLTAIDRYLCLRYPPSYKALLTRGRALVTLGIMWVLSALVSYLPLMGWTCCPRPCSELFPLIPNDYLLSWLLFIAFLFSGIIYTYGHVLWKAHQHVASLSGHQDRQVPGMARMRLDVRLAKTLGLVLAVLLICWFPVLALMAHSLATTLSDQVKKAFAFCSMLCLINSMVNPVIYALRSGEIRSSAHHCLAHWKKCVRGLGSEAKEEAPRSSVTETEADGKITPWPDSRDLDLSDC

SMILES | EC50 (human CB1 receptors; Human CB1 EC50 (uM)) [µM] | EC50 (human CB2 receptors; Human CB2 EC50 (uM)) [µM] | EC50 (human CB1 receptors; read-out: Human CB1 EC50) [µM] | EC50 (human CB2 receptors; read-out: Human CB2 EC50) [µM]
Cc1nc([C@](C)(CC2CC2)NC(=O)c2cc(OCC(F)(F)F)c(C3CC3)cn2)no1 (single isomer, unassigned; enantiomer b) [Example 67, 5-Cyclopropyl-4-(2,2,2-trifluoro-ethoxy)-pyridine-2-carboxylic acid [2-cyclopropyl-1-methyl-1-(5-methyl-[1,2,4]oxadiazol-3-yl)-ethyl]-amide (enantiomer B)] | 5.28 | 0.0037 | – | –
Cc1nc([C@@](C)(NC(=O)c2cc(OCC(F)(F)F)c(Cl)cn2)C2CC2)no1 (single isomer, unassigned; enantiomer b) [Example 75, 5-Chloro-4-(2,2,2-trifluoro-ethoxy)-pyridine-2-carboxylic acid [1-cyclopropyl-1-(5-methyl-[1,2,4]oxadiazol-3-yl)-ethyl]-amide (enantiomer B)] | > 10 | 0.11 | – | –
Cc1nc(C(C)(NC(=O)c2cc(O[C@@H](C)C(F)(F)F)c(C3CC3)cn2)C2CC2)no1 (single isomer, unassigned; epimer a) [Example 68] | – | – | > 10 | 0.00395
Cc1nc(C(C)(NC(=O)c2cc(O[C@H](C)C(F)(F)F)c(C3CC3)cn2)C2CC2)no1 (single isomer, unassigned; epimer a) [Example 72] | – | – | 0.19 | 0.0027
Cc1nc(C(C)(NC(=O)c2cc(O[C@@H](C)C(F)(F)F)c(C3CC3)cn2)C2CC2)no1 (single isomer, unassigned; epimer b) [Example 69] | – | – | 0.015 | 0.00025
Cc1nc(C(C)(NC(=O)c2cc(O[C@H](C)C(F)(F)F)c(C3CC3)cn2)C2CC2)no1 (single isomer, unassigned; epimer b) [Example 73] | – | – | 0.017 | 0.00025
COC(=O)C(C)(C)NC(=O)c1cc(I)c(Cl)cn1 [Example 1, 2-[(5-Chloro-4-iodo-pyridine-2-carbonyl)-amino]-2-methyl-propionic acid methyl ester] | – | – | > 10 | 0.0356
CC(C)(CO)NC(=O)c1cc(-c2cccc(Cl)c2)c(Cl)cn1 [Example 2, 5-Chloro-4-(3-chlorophenyl)-pyridine-2-carboxylic acid (2-hydroxy-1,1-dimethyl-ethyl)-amide] | – | – | > 10 | 0.0963
CC(C)C[C@H](NC(=O)c1cc(-c2cccc(Cl)c2)c(Cl)cn1)C(N)=O [Example 3, 5-Chloro-4-(3-chloro-phenyl)-pyridine-2-carboxylic acid ((S)-1-carbamoyl-3-methyl-butyl)-amide] | – | – | > 10 | 0.466
NC(=O)[C@H](CC1CC1)NC(=O)c1cc(OCC2CC2)c(Cl)cn1 [Example 4, 5-Chloro-4-cyclopropylmethoxy-pyridine-2-carboxylic acid ((S)-1-carbamoyl-2-cyclopropyl-ethyl)-amide] | – | – | > 10 | 0.115
O=C(NCC1(O)CCCCC1)c1cc(OCC2CC2)c(Cl)cn1 [Example 5, 5-Chloro-4-cyclopropylmethoxy-pyridine-2-carboxylic acid (1-hydroxy-cyclohexylmethyl)-amide] | – | – | > 10 | 0.107
O=C(NC1(CO)CCCC1)c1cc(OCC2CC2)c(Cl)cn1 [Example 6, 5-Chloro-4-cyclopropylmethoxy-pyridine-2-carboxylic acid (1-hydroxymethyl-cyclopentyl)-amide] | – | – | > 10 | 0.0524
CC(C)C[C@@H](CO)NC(=O)c1cc(OCC2CC2)c(Cl)cn1 [Example 7, 5-Chloro-4-cyclopropylmethoxy-pyridine-2-carboxylic acid ((S)-1-hydroxymethyl-3-methyl-butyl)-amide] | – | – | > 10 | 0.0523
CC(C)(C#N)NC(=O)c1cc(OCC2CC2)c(Cl)cn1 [Example 8, 5-Chloro-4-cyclopropylmethoxy-pyridine-2-carboxylic acid (cyano-dimethyl-methyl)-amide] | – | – | > 10 | 0.159
CC(C)C[C@H](NC(=O)c1cc(OCC2CC2)c(Br)cn1)C(N)=O [Example 9, 5-Bromo-4-cyclopropylmethoxy-pyridine-2-carboxylic acid ((S)-1-carbamoyl-3-methyl-butyl)-amide] | – | – | > 10 | 0.0329
CC(C)[C@@](C)(CO)NC(=O)c1cc(OCC2CC2)c(Cl)cn1 [Example 10, 5-Chloro-4-cyclopropylmethoxy-pyridine-2-carboxylic acid ((S)-1-hydroxymethyl-1,2-dimethyl-propyl)-amide] | – | – | > 10 | 0.0119
CC(C)[C@H](CO)NC(=O)c1cc(OCC2CC2)c(Cl)cn1 [Example 11, 5-Chloro-4-cyclopropylmethoxy-pyridine-2-carboxylic acid ((R)-1-hydroxymethyl-2-methyl-propyl)-amide] | – | – | > 10 | 0.0554

SMILES | EC50 (human CB1 receptors; Human CB1 EC50 (uM)) [µM] | EC50 (human CB2 receptors; Human CB2 EC50 (uM)) [µM] | EC50 (human CB1 receptors; read-out: Human CB1 EC50) [µM] | EC50 (human CB2 receptors; read-out: Human CB2 EC50) [µM]
CC(C)[C@](C)(CO)NC(=O)c1cc(OCC2CCC2)c(Cl)cn1 [Example 12, 5-Chloro-4-cyclobutylmethoxy-pyridine-2-carboxylic acid ((R)-1-hydroxymethyl-1,2-dimethyl-propyl)-amide] | – | – | > 10 | 0.0092
CCC[C@H](CO)NC(=O)c1cc(OCC2CC2)c(Cl)cn1 [Example 13, 5-Chloro-4-cyclopropylmethoxy-pyridine-2-carboxylic acid ((R)-1-hydroxymethyl-butyl)-amide] | – | – | > 10 | 0.146
CC(C)[C@](C)(CO)NC(=O)c1cc(OCC2CC2)c(Cl)cn1 [Example 14, 5-Chloro-4-cyclopropylmethoxy-pyridine-2-carboxylic acid ((R)-1-hydroxymethyl-1,2-dimethyl-propyl)-amide] | – | – | 6.98 | 0.0128
CC(C)[C@](C)(CO)NC(=O)c1cc(Cc2ccc(F)cc2)c(Cl)cn1 [Example 15, 5-Chloro-4-(4-fluoro-benzyl)-pyridine-2-carboxylic acid ((R)-1-hydroxymethyl-1,2-dimethyl-propyl)-amide] | – | – | > 10 | 0.0058
O=C(N[C@H](c1ccccn1)C(F)(F)F)c1cc(OCC2CC2)c(Cl)cn1 [Example 16, (+)-5-Chloro-4-cyclopropylmethoxy-pyridine-2-carboxylic acid (2,2,2-trifluoro-1-pyridin-2-yl-ethyl)-amide] | – | – | 0.815 | 0.0031
CC(C)(CO)CNC(=O)c1cc(OCC2CC2)c(Cl)cn1 [Example 17, 5-Chloro-4-cyclopropylmethoxy-pyridine-2-carboxylic acid (3-hydroxy-2,2-dimethyl-propyl)-amide] | – | – | > 10 | 0.0473
CC(C)C(CCO)NC(=O)c1cc(OCC2CC2)c(Cl)cn1 (centres unmarked) [Example 18, 5-Chloro-4-cyclopropylmethoxy-pyridine-2-carboxylic acid [1-(2-hydroxy-ethyl)-2-methyl-propyl]-amide] | – | – | > 10 | 0.149
O=C(NC(CCO)C1CC1)c1cc(OCC2CC2)c(Cl)cn1 (centres unmarked) [Example 19, 5-Chloro-4-cyclopropylmethoxy-pyridine-2-carboxylic acid (1-cyclopropyl-3-hydroxy-propyl)-amide] | – | – | > 10 | 0.0615
O=C(NCC1(CO)CCCC1)c1cc(OCC2CC2)c(Cl)cn1 [Example 20, 5-Chloro-4-cyclopropylmethoxy-pyridine-2-carboxylic acid (1-hydroxymethyl-cyclopentylmethyl)-amide] | – | – | > 10 | 0.0232
CCC(CC)(CO)NC(=O)c1cc(OCC2CC2)c(Cl)cn1 [Example 21, 5-Chloro-4-cyclopropylmethoxy-pyridine-2-carboxylic acid (1-ethyl-1-hydroxymethyl-propyl)-amide] | – | – | > 10 | 0.0404
O=C(N[C@@H](c1cccnc1)C(F)(F)F)c1cc(OCC2CC2)c(Cl)cn1 [Example 22, 5-Chloro-4-cyclopropylmethoxy-pyridine-2-carboxylic acid ((S)-2,2,2-trifluoro-1-pyridin-3-yl-ethyl)-amide] | – | – | > 10 | 0.0057
CNC(=O)[C@@H](NC(=O)c1cc(OC2COC2)c(Cl)cn1)C(C)(C)C [Example 23, 5-Chloro-4-(oxetan-3-yloxy)-pyridine-2-carboxylic acid ((S)-2,2-dimethyl-1-methylcarbamoyl-propyl)-amide] | – | – | > 10 | 0.205
CNC(=O)[C@@H](NC(=O)c1cc(OCC(F)(F)F)c(Cl)cn1)C(C)(C)C [Example 24, 5-Chloro-4-(2,2,2-trifluoro-ethoxy)-pyridine-2-carboxylic acid ((S)-2,2-dimethyl-1-methylcarbamoyl-propyl)-amide] | – | – | > 10 | 0.0098
CC(C)CC(C)(CO)NC(=O)c1cc(OCC2CC2)c(Cl)cn1 (centres unmarked) [Example 25, 5-Chloro-4-cyclopropylmethoxy-pyridine-2-carboxylic acid (1-hydroxymethyl-1,3-dimethyl-butyl)-amide] | – | – | > 10 | 0.0119
CCC(C)(CO)NC(=O)c1cc(OCC2CC2)c(Cl)cn1 (centres unmarked) [Example 26, 5-Chloro-4-cyclopropylmethoxy-pyridine-2-carboxylic acid (1-hydroxymethyl-1-methyl-propyl)-amide] | – | – | > 10 | 0.0476
CC(C)C[C@@](C)(CO)NC(=O)c1cc(OCC2CC2)c(Cl)cn1 [Example 27, (−)-5-Chloro-4-cyclopropylmethoxy-pyridine-2-carboxylic acid (1-hydroxymethyl-1,3-dimethyl-butyl)-amide] | – | – | > 10 | 0.0224
CC(C)C[C@](C)(CO)NC(=O)c1cc(OCC2CC2)c(Cl)cn1 [Example 28, (+)-5-Chloro-4-cyclopropylmethoxy-pyridine-2-carboxylic acid (1-hydroxymethyl-1,3-dimethyl-butyl)-amide] | – | – | > 10 | 0.0263
